Data as given in PMC5570900, “Exploiting a novel conformational switch to control innate immunity mediated by complement protein C3a” (Nature Communications, 2017).

What was measured:
[1] = Rat liver microsomal stability; format: in vitro ADME; conditions: rat liver microsomes, NADPH, 37 °C, over 1 h
Experimental: (§1) For plasma stability studies, C3a and experimental compounds (10 μL, 1 mM in DMSO) were added to neat rat plasma (190 μL) and heated to 37 °C in a circulating water bath. Aliquots (20 µL) were collected at time points (0, 2, 5 and 10 min for C3a; 0, 5, 15, 30, 60, 120 and 240 min for other test compounds) and added directly to MeCN/H2O (80 µL, 9:1). The samples were centrifuged at 13,000 g for 3 min before supernatants were isolated and analyzed for test compound degradation via LC-MS. For liver microsomal stability studies, commercially available rat liver microsomes from Life Technologies, GIBCO were used. In brief, microsomes stored at −80 °C were slowly defrosted on ice. Test compounds (183 μL, 1 μM in 100 mM phosphate buffer pH 7.4 containing 0.1 % DMSO) were added to microsomes (5 μL) and NADPH (2 µL, 20 mM). Test solutions were heated in a circulating water bath at 37 °C for 5 min before additional cofactor NADPH (10 μL, 20 mM) was added. Aliquots (20 μL) were taken at time points (0, 5, 15, 30 and 60 min from the second addition of NADPH). Aliquots were added to MeCN/H2O (80 μL, 9:1) and centrifuged at 13,000 g for 3 min. Supernatants were analyzed for test compound degradation by LC-MSMS. Concentrations were plotted as a function of time on a semi-logarithmic graph. Rat plasma and microsomal activity was confirmed by rapid degradation of SLIGRL-NH2 (t1/2 < 5 min) in a parallel experiment.

C3aR [2] = target: T1, C3aR (Homo sapiens, UniProt Q16581); assay: [125I]-hC3a competition binding on HMDMs; design: Concentration-dependent Ca^2+ release in human monocyte-derived macrophages (HMDMs); endogenous in cells; host or cells: primary human monocyte-derived macrophages (HMDMs); conditions: [125I]-hC3a 80 pM
T1 sequence (Q16581 1-482): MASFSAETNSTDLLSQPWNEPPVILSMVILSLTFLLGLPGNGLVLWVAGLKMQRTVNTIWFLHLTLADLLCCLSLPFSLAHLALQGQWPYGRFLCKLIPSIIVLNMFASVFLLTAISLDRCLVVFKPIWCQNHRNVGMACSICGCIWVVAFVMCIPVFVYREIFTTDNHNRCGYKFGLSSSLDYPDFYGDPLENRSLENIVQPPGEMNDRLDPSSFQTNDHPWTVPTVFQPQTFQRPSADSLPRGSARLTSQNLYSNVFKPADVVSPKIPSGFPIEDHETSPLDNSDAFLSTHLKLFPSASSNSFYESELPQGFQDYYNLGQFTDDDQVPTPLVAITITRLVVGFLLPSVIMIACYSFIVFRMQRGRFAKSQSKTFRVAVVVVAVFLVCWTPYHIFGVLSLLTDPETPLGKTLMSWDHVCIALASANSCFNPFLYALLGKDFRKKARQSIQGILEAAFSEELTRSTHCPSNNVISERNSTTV
Experimental: (§2) Receptor binding was performed by ligand competition with labelled 80 pM [^125I]-C3a or 25 pM [^125I]-C5a (2200 Ci/mmol; Perkin Elmer, Torrance, CA, USA) on HMDMs (1.2 × 10^6 cells/ml). HMDMs were treated with [^125I]-C3a or [^125I]-C5a ± various concentrations of unlabelled C3a/C5a or experimental ligands were diluted with assay buffer (50 mM Tris, 3 mM MgCl2, 0.1 mM CaCl2, 0.5% (w/v) BSA, pH 7.4) for 60 min at room temperature. Unbound [^125I]-C3a or [^125I]-C5a was removed by filtration through glass microfibre filter GF/B (Whatman Iner. Ltd, England) and washed three times with cold buffer (50 mM Tris-HCl pH 7.4). Bound [^125I]-C3a or [^125I]-C5a were assessed by scintillation counting on Microbeta counter. Specific binding was defined as the difference between total binding and nonspecific binding as determined in the presence of 1 μM unlabelled C3a or C5a[4].

C5aR = target: T2, C5aR (Homo sapiens, UniProt P21730); assay: [125I]-hC5a competition binding on HMDMs; conditions: [125I]-hC5a 25 pM
T2 construct: endogenous in cells; host or cells: primary human monocyte-derived macrophages (HMDMs)
T2 sequence (P21730 1-350): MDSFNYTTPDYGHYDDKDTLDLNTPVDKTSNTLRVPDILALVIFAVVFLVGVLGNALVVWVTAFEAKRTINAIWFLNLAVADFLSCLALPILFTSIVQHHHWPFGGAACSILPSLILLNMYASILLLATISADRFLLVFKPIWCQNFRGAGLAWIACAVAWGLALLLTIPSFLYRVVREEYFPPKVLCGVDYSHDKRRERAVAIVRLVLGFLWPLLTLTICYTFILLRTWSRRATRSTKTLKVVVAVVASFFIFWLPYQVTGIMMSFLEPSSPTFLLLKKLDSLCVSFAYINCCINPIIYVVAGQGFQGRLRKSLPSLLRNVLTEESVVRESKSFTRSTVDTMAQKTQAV
Experimental: as §2

C3aR [3] = target: T1, C3aR; assay: Intracellular Ca2+ release in HEK293 cells transfected with C3aR; format: cell-based; design: Concentration-dependent Ca^2+ release in human monocyte-derived macrophages (HMDMs); endogenous in cells; host or cells: primary human monocyte-derived macrophages (HMDMs)
[4] = test system: wild-type human HEK293 cells (C3aR−/−); assay: Intracellular Ca2+ release in wild-type HEK293 cells; format: cell-based
Rat plasma stability = format: in vitro ADME; conditions: neat rat plasma, 37 °C, over 4 h (C3a up to 10 min)
Experimental: as §1

Row | SMILES | Stability in rat liver microsomes [1] | C3aR binding by competition with [125I]-hC3a (C3aR [2]) | C5aR binding by competition with [125I]-hC5a (C5aR) | Intracellular Ca2+ release (C3aR [3]; HEK293 cells transfected with C3aR (C3aR+/+), compound alone) | Intracellular Ca2+ release [4] | Stability in rat plasma (Rat plasma stability) | Effect on Ca2+ release induced by C3a or 3 (C3aR [3]; C3aR-HEK293 cells, pre-treatment 30 min before C3a or 3)
1 | Cc1[nH]c(C(c2ccccc2)c2ccccc2)nc1C(=O)N[C@@H](CCCNC(=N)N)C(=O)O [Compound 3] | much more stable than C3a | compete with ^125I-labelled C3a | no binding | did induce Ca^2+ release | did not induce Ca^2+ release | remained intact | 
2 | N=C(N)NCCCC(NC(=O)c1ccc(C(c2ccccc2)c2ccccc2)s1)C(=O)O (stereo not drawn) [Compound 6] | much more stable than C3a | compete with ^125I-labelled C3a | no binding |  | did not induce Ca^2+ release | remained intact | prevented
